Consider 1 compound from US20230055713A1, “COMPOSITION FOR STRENGTHENING SKIN BARRIER OR MOISTURIZING SKIN COMPRISING TILIANIN” (COSMAX NBT, INC., priority 2021, published 2023).

Type in all cases: in vivo
One assay has as its system hyaluronic acid. In words: Hyaluronic acid concentration in skin homogenate (ELISA) of UVB-irradiated hairless mice. Particulars: UVB+T10 group: 10 mg/kg/week oral, 12 weeks. The procedure: (§1) Five-week-old female hairless mice (SKFI-1) were purchased from Orient Bio (Seongnam, Korea) as experimental animals. Diets of feed and water were freely given, and the animals were bred at the Yonsei Laboratory Animal Research Center (YLARC, Seoul, Korea) under conditions of 25° C. and 50 to 60% humidity for 12 hours. The hairless mice were randomly assigned to the following five groups: (i) a control group, (ii) a UVB-irradiated group (UVB), (iii) a UVB+100 mg/kg/day ARE-administered group (ARE100), (iv) a UVB+250 mg/Kg/day ARE-administered group (ARE250) and (v) UVB+10 mg/kg/week tilianin-administered group (T10). After one week of acclimatization, oral administrations of ARE and tilianin were performed daily for 12 weeks. In this case, the hairless mice belonging to the CON group and the UVB groups were orally administered with saline instead of the samples. […]
Specifically, the skin tissues of the hairless mice of each group in Example 2-1 were homogenized with NP40 lysis buffer (Elpis Biotech, Daejeon, Korea). The concentration of hyaluronic acid in the homogenate was determined using the hyaluronic acid quantikine ELISA Kit (R&D Systems, Minneapolis, Minn., USA) according to the manufacturer's protocol. Absorbance was read at 450 nm using the VERSAMAX™ variable microplate reader (Molecular Devices, Inc., Sunnyvale, Calif., USA).
(In general: An ELISA detects its analyte on a solid surface through an enzyme-linked reagent.)

In assay [1] the test system is UVB-irradiated hairless mice. In words: Transepidermal water loss (TEWL, Tewameter) on the dorsal skin of UVB-irradiated hairless mice. Conditions: ARE 100/250 mg/kg/day or tilianin 10 mg/kg/week oral, 12 weeks, vs UVB group. The method, then:
as §1, with “weeks.” for “weeks. In this case, the hairless mice belonging to the CON group and the UVB groups were orally administered with saline instead of the samples.”
(§2) Before anesthetizing the hairless mice, the moisture content and the degree of transepidermal water loss (TEWL) were measured on the dorsal section of the hairless mice. Moisture content was measured using CORNEOMETER® 825 (CK Electronics GmbH) at a pressure of 1.1 to 1.5 N after contacting a probe to the skin surface. The TEWL which represents the amount of the evaporation of transepidermal water in the process of damage and recovery of a skin barrier was measured under conditions of 20 to 25° C. and 40 to 60% humidity using TEWAMETER® TM300 (CK Electronics GmbH) equipped with MULTI PROBE ADAPTER® MPA5 (CK Electronics GmbH).

The next assay concerns HAS3. Briefly: HAS3 mRNA expression in skin tissue (RT-PCR) of UVB-irradiated hairless mice. Particulars: oral administration, 12 weeks, compared to the UVB-treated group. The procedure: as §1, with “samples. The hairless mice of the remaining groups except the CON group were irradiated with UVB, and the UVB irradiation was carried out using UV crosslinker CL-1000M (UVP) toward the back 3 times per week.” for “samples.”
(§3) Specifically, mRNA was isolated from the skin tissues of each group in Example 2-1 using RNAISO™ Plus (Takara). The mRNA was quantified using the NANODROP™ 1000 spectrophotometer (Thermo Fisher Scientific Inc.). […]

A further assay has as its system HAS2. Briefly: HAS2 mRNA expression in skin tissue (RT-PCR) of UVB-irradiated hairless mice. Particulars: oral administration, 12 weeks, compared to the UVB-treated group. The method, then:
as §1, with “samples. The hairless mice of the remaining groups except the CON group were irradiated with UVB, and the UVB irradiation was carried out using UV crosslinker CL-1000M (UVP) toward the back 3 times per week.” for “samples.”
as §3

Assay [2] deals with UVB-irradiated hairless mice. In words: Skin moisture content (Corneometer) on the dorsal skin of UVB-irradiated hairless mice. Particulars: T10 group: 10 mg/kg/week oral, 12 weeks. The procedure:
as §1, with “weeks.” for “weeks. In this case, the hairless mice belonging to the CON group and the UVB groups were orally administered with saline instead of the samples.”
as §2

A further assay deals with HAS1. Briefly: HAS1 mRNA expression in skin tissue (RT-PCR) of UVB-irradiated hairless mice. Particulars: oral administration, 12 weeks, compared to the UVB-treated group. The procedure: as §1, with “samples. The hairless mice of the remaining groups except the CON group were irradiated with UVB, and the UVB irradiation was carried out using UV crosslinker CL-1000M (UVP) toward the back 3 times per week.” for “samples.”
as §3

With `COc1ccc(-c2cc(=O)c3c(O)cc(O[C@@H]4O[C@H](CO)[C@@H](O)[C@H](O)[C@H]4O)cc3o2)cc1` [tilianin], in the assay on hyaluronic acid, the “content of hyaluronic acid, increase compared to the UVB-treated group” value was 42.26%. The “TEWL (transepidermal water loss)” value in assay [1] was “decreased to a significant level”. In addition, the “mRNA expression level of HAS3” value in the assay with HAS3 is listed as “significantly increased”. Further, in the assay with HAS2, the “mRNA expression level of HAS2” value is listed as “significantly increased”. In addition, the “moisture content in the skin” value in assay [2] is recorded as “restored to normal levels”. Also, the “mRNA expression level of HAS1” value with HAS1 was “significantly increased”.
